In patent publication US20230357162A1, “COMPOUNDS, COMPOSITIONS AND METHODS” (Denali Therapeutics Inc., priority 2020, published 2023):

System: IL-1β secretion, THP-1 cells
Test: IL-1β secretion assay in PMA-differentiated THP-1 cells stimulated with LPS and nigericin (ELISA readout)
Assay type: cell-based
Settings: Homo sapiens, THP-1, inhibition of IL-1β secretion, 25 ng/mL LPS then nigericin
Protocol: Compounds as provided herein were tested in the following assay. Cell culture medium employed contained RPMI 1640 medium (89%), FBS (10%), Pen/Strep (1%), and 2-mercaptoethanol (0.05 mM). Freezing medium was made up of 90% FBS and 10% DMSO. THP-1 cells were removed from the liquid nitrogen and placed into a 37° C. water bath to thaw, until signs of ice dissipated. The cells were then added to 9 mL of warm cell culture medium and centrifuged for 5 minutes at 1000 rpm. The supernatant was discarded, and the cells were resuspended in new cell culture medium. THP-1 cells were then split and cultured in the cell culture medium, being passaged every 2-3 days with the cell density will be maintained between 5×10^5 and 1.5×10^6 viable cells/mL.
PMA was dissolved in DMSO to make a stock solution at 5 mg/ml and stored in 10 µl aliquots at -20° C. for single use. PMA is added to normal growth medium. LPS was diluted with 1 mL of water solution to provide a 1 mg/mL stock solution and stored in 15 µl aliquots at -20° C. for single use. Nigericin is diluted in ice cold 100% ethanol to 5 mg/ml (6.7 mM) and stored in 75 µL aliquots at -20° C. for single use. Serum-free media contains RPMI 1640 medium (99%), Pen/Strep (1%), and 2-mercaptoethanol (0.05 mM). The two control conditions used to qualify and normalize test compound dose-response curves were as follows: High Control = 25 ng/mL LPS, 5 µM Nigericin, 0.5% DMSO, Low Control = 25 ng/mL, LPS, 0.5% DMSO.
THP-1 cells were diluted to provide a suspension at a concentration of 1.0×10^6 cells/mL with the total volume of suspension required to enable the desired number of assay plates. The growth media was supplemented with PMA (5 ng/mL final concentration) and the cells were incubated at 37° C. under a humidified atmosphere of 5% CO2 for 40 h.
All media was carefully aspirated from each culture flask. The cells were washed carefully with 1x DPBS. The cells were then briefly digested with trypsin LE for 5 minutes at 23° C. and immediately resuspended in cell growth media. After resuspension, the cells were centrifuged at 1000 rpm for 3 minutes and the supernatant was discarded. The cells were resuspended in DPBS and once again centrifuged at 1000 rpm for 5 minutes. The supernatant was discarded and the cell pellet was resuspended in serum-free media supplemented with LPS (25 ng/mL final concentration) to enable the distribution of 30 K THP-1 cells within 45 µL of media into each well of 384-well PDL-coated plates. The 384-well plates were then incubated at 37° C. under a humidified atmosphere of 5% CO2 for 2 h. Following this period, test compounds were dispensed by Tecan across the desired concentration range with all wells normalized to a final 0.5 % DMSO concentration. The plates were then then incubated at 37° C. under a humidified atmosphere of 5% CO2 for 1 h. Following this period, 5 µL of the […] nigericin stock solution was added to each of the appropriate wells and plates were centrifuged at 1000 rpm for 30 seconds. The plates were the immediately reintroduced to the incubator at 37° C. under a humidified atmosphere of 5% CO2 for 2 h. After this time, 35 µL/well of supernatant was collected and transferred into v-bottom plate and centrifuged at 1000 rpm for 1 minute. These supernatant aliquots were analyzed using an IL-Iβ detection kit as described below. If needed, the test samples could be snap frozen and stored at -80° C. until analyzed.
To prepare each ELISA plate, capture antibody (mAb Mt175) was diluted with PBS to a final concentration of 2 µg/mL and then 20 µL of this solution was added to each well of the ELISA plate. Each plate was allowed to incubate overnight at 4° C. The next day, the capture antibody solution was removed and discarded. Each ELISA plate was washed 4 times with PBST followed by the addition of 25 µL/well of blocking buffer (Licor-927-40010) supplemented with 0.1% Tween 20. Each ELISA plate was then allowed to incubate for 1 hour at 23° C. […]

Row | IC50 (class column of Table 3) [µM] | IC50 (numeric column of Table 3) [µM] | Compound
1 | < 10 | 4.76 | CCN1CCOCC(NC(=O)Cn2nc(C(C)C)c3cc(Br)ccc3c2=O)C1 (centres unmarked) [Example 159, 2-(6-bromo-1-oxo-4-propan-2-ylphthalazin-2-yl)-N-(4-ethyl-1,4-oxazepan-6-yl)acetamide]
2 | < 10 | 0.058 | CC(C)c1nn(CC(=O)N[C@@H]2CCCN(C3CCC3)C2)c(=O)c2ccc(Br)cc12 [Example 106, 2-(6-bromo-1-oxo-4-propan-2-ylphthalazin-2-yl)-N-[(3R)-1-cyclobutylpiperidin-3-yl]acetamide]
3 | < 10 | 0.197 | CC(F)c1nn(CC(=O)Nc2ncccn2)c(=O)c2ccc(Br)cc12 (centres unmarked) [Example 80, 2-[6-bromo-4-(1-fluoroethyl)-1-oxo-phthalazin-2-yl]-N-pyrimidin-2-yl-acetamide]
4 | < 10 | 0.11 | CC(C)c1nn(CC(=O)Nc2ncc(Cl)cc2F)c(=O)c2ccc(Br)cc12 [Example 68, 2-(6-bromo-1-oxo-4-propan-2-ylphthalazin-2-yl)-N-(5-chloro-3-fluoropyridin-2-yl)acetamide]
5 | < 10 | 1.06 | CC(C)c1nn(CC(=O)Nc2nc(F)ccc2F)c(=O)c2ccc(Br)cc12 [Example 40, 2-(6-bromo-1-oxo-4-propan-2-ylphthalazin-2-yl)-N-(3,6-difluoropyridin-2-yl)acetamide]
6 | < 10 | 4.95 | CC(C)c1nn(CC(=O)Nc2c(F)cncc2F)c(=O)c2ccc(Br)cc12 [Example 37, 2-(6-bromo-1-oxo-4-propan-2-ylphthalazin-2-yl)-N-(3,5-difluoropyridin-4-yl)acetamide]
7 | > 15 | 16.1 | O=C(Cn1nc([C@H]2C[C@@H]2F)c2cc(Br)ccc2c1=O)Nc1ncc(F)cn1 [Example 167, 2-[6-bromo-4-[2-trans-fluorocyclopropyl]-1-oxophthalazin-2-yl]-N-(5-fluoropyrimidin-2-yl)acetamide]
8 | < 10 | 0.424 | O=C(Cn1nc(C(F)F)c2cc(Br)ccc2c1=O)Nc1ncc(Cl)cn1 [Example 135]
9 | < 10 | 1.51 | CO[C@H]1C[C@H](NC(=O)Cn2nc(C(C)C)c3cc(Br)ccc3c2=O)C1 [Example 78, 2-(6-bromo-1-oxo-4-propan-2-ylphthalazin-2-yl)-N-(3-trans-methoxycyclobutyl)acet amide]
10 | < 10 | 1.32 | Cc1ncc(F)c(NC(=O)Cn2nc(C(C)C)c3cc(Br)ccc3c2=O)n1 [Example 31, 2-(6-bromo-1-oxo-4-propan-2-ylphthalazin-2-yl)-N-(5-fluoro-2-methylpyrimidin-4-yl)acetamide]
11 | > 15 | 22.7 | CC(C)c1nn(CC(=O)NCC2CN(C)CCO2)c(=O)c2ccc(Br)cc12 (centres unmarked) [Example 65, 2-(6-bromo-1-oxo-4-propan-2-ylphthalazin-2-yl)-N-[(4-methylmorpholin-2-yl)methyl]acetamide]
12 | < 10 | 0.796 | CC(C)c1nn(CC(=O)Nc2ccc(C3CC3)cn2)c(=O)c2ccc(Br)cc12 [Example 111, 2-(6-bromo-1-oxo-4-propan-2-ylphthalazin-2-yl)-N-(5-cyclopropylpyridin-2-yl)acetamide]
13 | < 10 | 2.47 | O=C(Cn1nc(CF)c2ccc(Br)cc2c1=O)Nc1ncc(F)cn1 [Example 143, 2-[7-bromo-4-(fluoromethyl)-1-oxophthalazin-2-yl]-N-(5-fluoropyrimidin-2-yl)acetamide]
14 | < 10 | 5.26 | CC(C)c1nn(CC(=O)NCc2ccnn2C)c(=O)c2ccc(Br)cc12 [Example 128, 2-(6-bromo-1-oxo-4-propan-2-ylphthalazin-2-yl)-N-[(2-methylpyrazol-3-yl)methyl]acetamide]
15 | < 10 | 20.1 | CC(C)c1nn(CC(=O)NCc2ccccc2)c(=O)c2ccc(Br)cc12 [Example 129, N-benzyl-2-(6-bromo-1-oxo-4-propan-2-ylphthalazin-2-yl)acetamide]
16 | < 10 | 1.03 | Cc1cnc(NC(=O)Cn2nc(C(C)C)c3cc(Br)ccc3c2=O)c(F)c1 [Example 124, 2-(6-bromo-1-oxo-4-propan-2-ylphthalazin-2-yl)-N-(3-fluoro-5-methylpyridin-2-yl)acetamide]
17 | < 10 | 0.068 | O=C(Cn1nc(C(F)F)c2c(F)c(Br)ccc2c1=O)Nc1ncc(Cl)cn1 [Example 182]
18 | 10 to 15 | 10.3 | CC(C)c1nn(CC(=O)Nc2nn(C)cc2F)c(=O)c2ccc(Br)cc12 [Example 62, 2-(6-bromo-1-oxo-4-propan-2-ylphthalazin-2-yl)-N-(4-fluoro-1-methylpyrazol-3-yl)acetamide]
19 | < 10 | 0.173 | Cc1cnc(NC(=O)Cn2nc(OC3CC3)c3cc(Br)ccc3c2=O)nc1 [Example 152]
20 | < 10 | 0.403 | CO[C@H]1C[C@@H](Oc2nn(CC(=O)Nc3ncc(F)cn3)c(=O)c3ccc(Br)cc23)C1 [Example 172, 2-[6-bromo-4-(3-cis-methoxycyclobutyl)oxy-1-oxophthalazin-2-yl]-N-(5-fluoropyrimidin-2-yl)acetamide]
21 | < 10 | 0.279 | O=C(Cn1nc(CF)c2cc(C(F)(F)F)ccc2c1=O)Nc1ncc(F)cn1 [Example 147, 2-[4-(fluoromethyl)-1-oxo-6-(trifluoromethyl)phthalazin-2-yl]-N-(5-fluoropyrimidin-2-yl)acetamide]
22 | < 10 | 5.85 | N#C[C@H]1C[C@@H](Oc2nn(CC(=O)Nc3ncc(F)cn3)c(=O)c3ccc(Br)cc23)C1 [Example 171, 2-[6-bromo-4-(3-cis-cyanocyclobutyl)oxy-1-oxophthalazin-2-yl]-N-(5-fluoropyrimidin-2-yl)acetamide]
23 | < 10 | 1.05 | CC(C)c1nn(CC(=O)NCC2CCC2)c(=O)c2ccc(Br)cc12 [Example 127, 2-(6-bromo-1-oxo-4-propan-2-ylphthalazin-2-yl)-N-(cyclobutylmethyl)acetamide]
24 | < 10 | 0.614 | O=C(Cn1nc(C(F)F)c2nc(C(F)(F)F)ccc2c1=O)Nc1ncc(F)cn1 [Example 105, 2-[8-(difluoromethyl)-5-oxo-2-(trifluoromethyl)pyrido[2,3-d]pyridazin-6-yl]-N-(5-fluoropyrimidin-2-yl)acetamide]
25 | < 10 | 8.65 | CC(C)(C)OC(=O)N1CCC[C@@H](NC(=O)Cn2nc(OC3CC3)c3cc(Br)ccc3c2=O)C1 [Example 175, tert-butyl (3R)-3-[[2-(6-bromo-4-cyclopropyloxy-1-oxophthalazin-2-yl)acetyl]amino]piperidine-1-carboxylate]
26 | < 10 | 0.137 | O=C(Cn1nc(C(F)F)c2c(F)c(Br)ccc2c1=O)Nc1ncccn1 [Example 27, 2-[6-bromo-4-(difluoromethyl)-5-fluoro-1-oxophthalazin-2-yl]-N-pyrimidin-2-ylacetamide]
27 | < 10 | 2.53 | CC(C)c1nn(CC(=O)NC2CCOC2)c(=O)c2ccc(Br)cc12 (centres unmarked) [Example 52, 2-(6-bromo-1-oxo-4-propan-2-ylphthalazin-2-yl)-N-(oxolan-3-yl)acetamide]
28 | < 10 | 0.144 | CC(C)c1nn(CC(=O)Nc2ncncc2F)c(=O)c2ccc(Br)c(F)c12 [Example 9, 2-(6-Bromo-5-fluoro-4-isopropyl-1-oxophthalazin-2(1H)-yl)-N-(5-fluoropyrimidin-4-yl)acetamide]
